Source: patent publication US7071168B2, “Anti-cancer compounds and methods related thereto” (The Regents of the University of Colorado, priority 1998, dated 2006)
Non-standard residues stand in square brackets, D forms with d. No end group written: not given here. Oic = O=C(O)[C@@H]1C[C@@H]2CCCC[C@@H]2N1; dTic = O=C(O)[C@H]1Cc2ccccc2CN1

Assays:
SCLC strain SHP-77 = assay: Colorimetric tetrazolium (MTT) assay for cell survival, SCLC strain SHP-77; assay type: cell-based, human
Description: (§1) In general, Anti-bradykinin activity was determined by the classical guinea pig ileum assay and on Chinese hamster ovary (CHO) cells expressing cloned human bradykinin B2 receptors. Anti-tumor activity was determined on cultured human cancer cell lines using the standard tetrazolium (MTT) assay.
Cell growth and survival were measured by a rapid colorimetric assay based on the tetrazolium salt MTT (3-(4,5-dimethylthiazol-2-yl)-2,5-diphenyl tetrazolium bromide) (Mosmann, J Immunol. Methods 65: 55–63, 1983, with minor modifications). Briefly, 1,000 normal lung fibroblasts or normal epithelial BEAS-2B cells, 1,000 or 5,000 viable non-SCLC cells or 10,000 viable SCLC cells were plated in 100 μL of growth medium in 96-well flat-bottomed microtiter plates. Cells were incubated overnight to allow recovery. Compounds to be tested were added to the cells in triplicate in a range of concentrations and the cells were incubated at 37° C., 5% CO2, with 100% humidity. Control cells were treated in the same way without antagonists. […] Plates were incubated for 4 days, allowing sufficient time for cell replication and compound-induced cell death to occur. On day 5, 25 μL of a 2 mg/mL solution of MTT (Sigma) dissolved in RMPI-1640was added to each well. The plate was incubated for 4 h at 37° C. The supernate was removed and the blue formazan complex was dissolved by adding 100 μL of 0.02 N HCl in 75% isopropanol to all wells. Absorbance was immediately determined using a scanning multiwell plate reader. B9870 caused 50% cell death at a concentration of 0.15 μM under these conditions.

[1] = test system: bradykinin response of isolated guinea pig ileum; assay: Anti-bradykinin activity on isolated guinea pig ileum; details: for GPI: pA2 for bradykinin antagonist activity on isolated guinea pig ileum: Table 1, higher numbers indicate higher potency
Description: as §1
Male Hartley guinea pigs that had been deprived of food overnight were sacrificed, and sections of terminal ileum, 25 mm in length, were dissected, attached to tissue holders and immersed in 10 ml tissue baths containing Krebs' solution bubbled with 95% O2/5% CO2. Tissues were placed under 1 g tension and incubated for 1 h equilibration. Concentration-effect curves were constructed to bradykinin in the absence and presence of new compounds.

| Compound | GPI: pA2 for bradykinin antagonist activity on isolated guinea pig ileum [1] | also measured |
| --- | --- | --- |
| 33Dp-DArg-Arg-Aud-Ser-D5F5-Oic-Arg [M964] | – | MTT: ED50 for killing of SCLC strain SHP-77 in vitro (SCLC strain SHP-77; Table 1, SHP-77, MTT, 4 days): 4 to 8 µM |
| CC1(C)CC(NC(=O)[C@@H](NC(=N)CCCCCCCCCCCCC(=O)O)C2Cc3ccccc3C2)CC(C)(C)N1 [M280-1] | – | MTT: ED50 for killing of SCLC strain SHP-77 in vitro (SCLC strain SHP-77; SCLC strain SHP-77 in vitro): 21 µM |
| CC1(C)CC(NC(=O)C(Cc2ccc3ccccc3c2)NC(=O)CCCCCNC(=O)c2cc(C(=O)NCCCCCC(=O)NC(Cc3ccc4ccccc4c3)C(=O)NC3CC(C)(C)NC(C)(C)C3)cc(C(=O)NCCCCCC(=O)NC(Cc3ccc4ccccc4c3)C(=O)NC3CC(C)(C)NC(C)(C)C3)c2)CC(C)(C)N1 (stereo not shown) [M290-2] | – | MTT: ED50 for killing of SCLC strain SHP-77 in vitro (SCLC strain SHP-77; SCLC strain SHP-77 in vitro): 20 µM |
| CC1(C)CC(NC(=O)C(NC(=O)C=Cc2ccc(N)cc2)C2Cc3ccccc3C2)CC(C)(C)N1 (stereo not shown) [M292] | – | MTT: ED50 for killing of SCLC strain SHP-77 in vitro (SCLC strain SHP-77; SCLC strain SHP-77 in vitro): 40 µM |
| CC1(C)CC(NC(=O)C(Cc2ccc(-c3ccccc3)cc2)NC(=O)C=Cc2cccnc2)CC(C)(C)N1 (stereo not shown) [M296] | – | MTT: ED50 for killing of SCLC strain SHP-77 in vitro (SCLC strain SHP-77; SCLC strain SHP-77 in vitro): 15 µM |
| CC1(C)CC(NC(=O)C(Cc2ccc3ccccc3c2)NC(=O)c2ccc(NC(=N)N)cc2)CC(C)(C)N1 (stereo not shown) [M306] | – | MTT: ED50 for killing of SCLC strain SHP-77 in vitro (SCLC strain SHP-77; SCLC strain SHP-77 in vitro): >100 µM |
| CC1(C)CC(NC(=O)C(Cc2ccc(O)cc2)NC(=O)C=Cc2c(F)c(F)c(F)c(F)c2F)CC(C)(C)N1 (stereo not shown) [M316] | – | MTT: ED50 for killing of SCLC strain SHP-77 in vitro (SCLC strain SHP-77; SCLC strain SHP-77 in vitro): 50 µM |
| CC1(C)CC(NC(=O)C2CC3CCCCC3N2C(=O)C=Cc2c(F)c(F)c(F)c(F)c2F)CC(C)(C)N1 (stereo not shown) [M320] | – | MTT: ED50 for killing of SCLC strain SHP-77 in vitro (SCLC strain SHP-77; SCLC strain SHP-77 in vitro): 13 µM |
| CC1(C)CC(NC(=O)C2Cc3ccccc3CN2C(=O)C=Cc2c(F)c(F)c(F)c(F)c2F)CC(C)(C)N1 (stereo not shown) [M322] | – | MTT: ED50 for killing of SCLC strain SHP-77 in vitro (SCLC strain SHP-77; SCLC strain SHP-77 in vitro): 7.6 µM |
| Cc1cc(NC(=O)c2cccc(NC(=O)CNC(=O)/C=C/c3cccnc3)c2)c2ccccc2n1 [M428] | – | MTT: ED50 for killing of SCLC strain SHP-77 in vitro (SCLC strain SHP-77; SCLC strain SHP-77 in vitro): >300 µM |
| CC1(C)CC(NC(=O)C(Cc2csc3ccccc23)NC(=NC2CCCCC2)NC2CCCCC2)CC(C)(C)N1 (stereo not shown) [M440] | – | MTT: ED50 for killing of SCLC strain SHP-77 in vitro (SCLC strain SHP-77; SCLC strain SHP-77 in vitro): 30 µM |
| O=C(CCCCCCCCCCC(=O)N[C@@H](Cc1cccnc1)C(=O)N[C@@H](Cc1ccc2ccccc2c1)C(=O)NC1CCCCC1)N[C@@H](Cc1cccnc1)C(=O)N[C@@H](Cc1ccc2ccccc2c1)C(=O)NC1CCCCC1 [M460] | – | MTT: ED50 for killing of SCLC strain SHP-77 in vitro (SCLC strain SHP-77; SCLC strain SHP-77 in vitro): 15 µM |
| O=C(C=Cc1c(F)c(F)c(F)c(F)c1F)NC(Cc1ccc2ccccc2c1)C(=O)NCc1cccnc1 (stereo not shown) [M466] | – | MTT: ED50 for killing of SCLC strain SHP-77 in vitro (SCLC strain SHP-77; SCLC strain SHP-77 in vitro): Inact |
| CN(C)CCCNC(=O)[C@H](Cc1ccc2ccccc2c1)NC(=O)C=Cc1ccc(NC(=O)CCCCCCCCCCC(=O)Nc2ccc(C=CC(=O)N[C@@H](Cc3ccc4ccccc4c3)C(=O)NCCCN(C)C)cc2)cc1 [M538] | – | MTT: ED50 for killing of SCLC strain SHP-77 in vitro (SCLC strain SHP-77; SCLC strain SHP-77 in vitro): >80 µM |
| CCOC(=O)CN1C(C)(C)CC(NC(=O)C(Cc2ccc3ccccc3c2)NC(=O)C(C2CCCCC2)C2CCCCC2)CC1(C)C (stereo not shown) [M572] | – | MTT: ED50 for killing of SCLC strain SHP-77 in vitro (SCLC strain SHP-77; SCLC strain SHP-77 in vitro): 2.6 µM |
| COC(=O)C(Cc1ccc(OCc2ccccc2)cc1)N(Cc1ccc(N(C)C)cc1)C(=O)C=Cc1c(F)c(F)c(F)c(F)c1F (stereo not shown) [M614] | – | MTT: ED50 for killing of SCLC strain SHP-77 in vitro (SCLC strain SHP-77; SCLC strain SHP-77 in vitro): 9.1 µM |
| CC1(C)CC(NC(=O)C(Cc2cccc3ccccc23)NC(=O)C(Cc2cnc[nH]2)NC(=O)CCCCCCCCCCC(=O)NC(Cc2cnc[nH]2)C(=O)NC(Cc2cccc3ccccc23)C(=O)NC2CC(C)(C)NC(C)(C)C2)CC(C)(C)N1 (stereo not shown) [M660] | – | MTT: ED50 for killing of SCLC strain SHP-77 in vitro (SCLC strain SHP-77; SCLC strain SHP-77 in vitro): 30 µM |
| CN(C)c1ccc(CNC(=O)C(Cc2ccc(OCc3c(Cl)cccc3Cl)cc2)NC(=O)C=Cc2c(F)c(F)c(F)c(F)c2F)cc1 (stereo not shown) [M798] | – | MTT: ED50 for killing of SCLC strain SHP-77 in vitro (SCLC strain SHP-77; SCLC strain SHP-77 in vitro): 37 µM |
| CC1(C)CC(NC(=O)C(Cc2ccc(OCc3c(Cl)cccc3Cl)cc2)NC(=O)CN(CCN(CC(=O)NC(Cc2ccc(OCc3c(Cl)cccc3Cl)cc2)C(=O)NC2CC(C)(C)NC(C)(C)C2)CC(=O)NC(Cc2ccc(OCc3c(Cl)cccc3Cl)cc2)C(=O)NC2CC(C)(C)NC(C)(C)C2)CC(=O)NC(Cc2ccc(OCc3c(Cl)cccc3Cl)cc2)C(=O)NC2CC(C)(C)NC(C)(C)C2)CC(C)(C)N1 (stereo not shown) [M1040, EDTA-(OC2Y-ATMP)4] | – | MTT: ED50 for killing of SCLC strain SHP-77 in vitro (SCLC strain SHP-77; SCLC strain SHP-77 in vitro): 0.73 µM |
| Aaa-DArg-Arg-Aud-Ser-D5F5-Oic-Arg [M956] | – | MTT: ED50 for killing of SCLC strain SHP-77 in vitro (SCLC strain SHP-77; Table 1, SHP-77, MTT, 4 days): 14 µM |
| DDD-(DArg-hPhe-Arg)2 [M554] | 5.1 | – |
| DDD-(Eac-Arg-Digl-Oic-Arg)2 [B10198-1] | 5.7 | – |

| Compound | GPI: pA2 for bradykinin antagonist activity on isolated guinea pig ileum [1] | also measured |
| --- | --- | --- |
| Dcg-2-Nal-Atpc-Arg [M232-3] | 5.1 | – |
| Dcg-2Nal-Arg [M10] | 4.8 | – |
| Dcg-(D,L)Ata-Arg [M96] | 4.7 | – |
| Dcg-Ac6c-Arg [M86] | 5.0 | – |
| Dcg-Apa-Arg [M78] | 5.6 | – |
| Dcg-Atpc-Arg [M232-1] | 4.7 | – |
| Dcg-BtA-Arg [M68] | 4.9 | – |
| Dcg-Gly-Cmp-Arg [M124] | 4.7 | – |
| Dcg-Igl-Arg [M70] | 4.8 | – |
| Dcg-Ile-Arg [M84] | 5.1 | – |
| Dcg-Pac-Gly-m-ABz-2-Nal-Arg [M200-2] | 4.9 | – |
| Dcg-Trx-Arg [M134] | 4.9 | – |
| Dcg-p-Amb-Arg [M346] | 4.6 | – |
| Dhq-DArg-Arg-Pro-Hyp-Gly-CpG-Ser-DCpG-CpG-Arg [B9074] | 6.3 | – |
| F5c-APb-Arg [M372] | 4.6 | – |
| F5c-Ana-Arg [M392] | 4.5 | – |
| F5c-Bip-Arg [M394] | 4.7 | – |
| F5c-DArg-Arg-Aud-DTic-hPhe-Arg [M766] | 5.1 | – |
| F5c-DhPhe-Arg [M730] | 4.7 | – |
| F5c-Dpr(Fbz)-Arg [M688] | Inact | – |
| F5c-Dpr(Paa)-Arg [M690] | 4.8 | – |
| F5c-Lys(F5bz)-Arg [M682] | 4.9 | – |

| Compound | GPI: pA2 for bradykinin antagonist activity on isolated guinea pig ileum [1] | also measured |
| --- | --- | --- |
| F5c-Lys{(CH3)3}-Arg [M388] | 4.9 | – |
| F5c-PNF-Arg [M732] | 4.9 | – |
| F5c-Pac-Arg [M398] | Inact | – |
| F5c-Phe-Arg [M410] | 5.4 | – |
| F5c-Thi-Arg [M424] | 4.6 | – |
| F5c-Tic-Arg [M382] | 4.7 | – |
| F5c-Trp-Arg [M426] | Inact | – |
| F5c-Tyr-Arg [M380] | Inact | – |
| F5c-m-APa-Arg [M412] | 5.8 | – |
| F5c-p-ABz-Arg [M148] | 5.1 | – |
| F5c-p-Amb-APa-Arg [M352] | 4.7 | – |
| F5c-p-Amb-Arg [M348] | 4.7 | – |
| Gun-2-Nal-Arg [M20] | 4.6 | – |
| Gun-Eac-DIgl-Oic-Arg [M42] | 5.0 | – |
| Gun-Ica-Arg [M88] | 4.7 | – |
| Mcg-Pac-Gly-m-ABz-2-Nal-Arg [M200-1] | Inact | – |
| RPPGFSPFR [BK, reference compound] | – | pD2 of bradykinin on ileum ([1]; guinea pig ileum): 7.4 |
| RPPGFT[dTic][Oic]-NH2 [B10284] | 7.7 | – |
| RPPGFT[dTic][Oic]R [B10282] | 7.3 | – |
| ε-SUB-(Lys-DArg-Arg-Eac-Ser-DF5F-Nc7G-Arg)2 [M1038] | 6.4 | – |
